Source: PubChem BioAssay (NCI)
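All cell lines were grown in 96-well plates and treated with compound for 48 hours. TGI is the concentration that stops growth completely.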

What was measured:
Experiment in all cases: growth of human tumour cells (NCI), 48 h
786-0 renal = tested on: 786-0 renal
A549 NSCLC = tested on: A549 NSCLC
HT29 colon = tested on: HT29 colon
IGROV1 ovarian = tested on: IGROV1 ovarian
MCF7 breast = tested on: MCF7 breast
MDA-MB-231 breast = tested on: MDA-MB-231 breast
NCI-H226 lung = tested on: NCI-H226 lung
PC-3 prostate = tested on: PC-3 prostate
SK-MEL-2 melanoma = tested on: SK-MEL-2 melanoma
UACC-62 melanoma = tested on: UACC-62 melanoma

| SMILES | TGI (786-0 renal) [µM] | TGI (A549 NSCLC) [µM] | TGI (HT29 colon) [µM] | TGI (IGROV1 ovarian) [µM] | TGI (MCF7 breast) [µM] | TGI (MDA-MB-231 breast) [µM] | TGI (NCI-H226 lung) [µM] | TGI (PC-3 prostate) [µM] | TGI (SK-MEL-2 melanoma) [µM] | TGI (UACC-62 melanoma) [µM] |
| --- | --- | --- | --- | --- | --- | --- | --- | --- | --- | --- |
| CC1SCCc2nc3ccccc3n21 (stereo not given) | > 100 | > 100 | > 100 | > 100 | > 100 | > 100 | > 100 | > 100 | > 100 | > 100 |
| CC(=O)OC/C=C/Cn1nc(Br)c(=O)[nH]c1=O | > 100 | > 100 | > 100 | > 100 | > 100 | > 100 | > 100 | > 100 | > 100 | > 100 |
| COc1cc(CC2C(=O)OCC2Cc2ccc(OC)c(OC)c2)ccc1O (stereo not given) | > 100 | > 100 | > 100 | > 100 | > 100 | > 100 | > 100 | > 100 | > 100 | > 100 |
| COc1ccc(OC)c2c(Nc3ccc(S(=O)(=O)O)c4cc(S(=O)(=O)O)cc(S(=O)(=O)O)c34)cc(C)nc12 | > 100 | > 100 | > 100 | > 100 | > 100 | > 100 | > 100 | > 100 | > 100 | > 100 |
| O=C(CCc1ccccc1)NCCc1ccc(O)c(O)c1 | > 82.2 | > 100 | > 69.3 | > 100 | 93.9 | > 72.3 | > 100 | > 61.2 | 49.5 | > 100 |
| N=c1sc(N2CCOCC2)nn1CC(=O)c1ccccc1 | > 100 | > 100 | > 100 | > 100 | > 100 | > 100 | > 100 | > 100 | > 100 | > 100 |
| Nc1nc(N)c2ncn(Cc3ccccc3)c2n1 | > 100 | > 100 | > 100 | > 100 | > 100 | > 100 | > 100 | > 100 | > 100 | > 100 |
| CCCCSC1=N/C(=C\c2ccccc2O)C(Cl)=N1 | > 100 | > 100 | > 100 | > 100 | > 100 | > 100 | > 100 | > 100 | > 100 | > 100 |
| O=C1Cc2c(-c3ccccc3)cc(-c3ccc(Cl)cc3)nc2-c2ccccc2N1 | 3.51 | 35.3 | > 46.8 | 35.9 | > 72.2 | 19.2 | 22 | > 57.7 | 49.4 | > 31 |
| Cc1nnc(N)s/c1=N/O | > 100 | > 100 | > 100 | > 100 | > 100 | > 100 | > 100 | > 100 | > 100 | > 100 |
| C(/Cc1ccc2c(c1)OCO2)=N\NC1=NCCCCN1 | > 100 | > 100 | > 100 | > 100 | > 100 | > 100 | > 100 | > 100 | > 100 | > 100 |
| CCOP(=O)(OCC)/C(C#N)=C(\C)c1ccco1 | > 10 | > 10 | > 10 | > 10 | > 10 | > 10 | > 10 | > 10 | > 10 | > 10 |
| CCCCN1/C(=N/Nc2n[nH]c(=O)c3ccccc23)SCC1c1ccc(Cl)cc1 (stereo not given) | 42.2 | > 100 | 96.1 | 41.1 | 33.2 | 55 | 27.5 | > 100 | 56.4 | 20.7 |
| O=C1c2sccc2C(=O)c2c(CO)csc21 | 18.5 | 6.7 | 9.55 | 17.7 | 18.9 | 50.1 | 15 | > 32.8 | 8.63 | 5.67 |
| CC(=O)Oc1c(OC(C)C)cc(=O)n2ccsc12 | > 100 | > 100 | > 100 | > 100 | > 100 | > 100 | > 100 | > 100 | > 100 | > 100 |
